Test system: KRAS-mutant PDC complex spheroid viability
Experiment: Anticancer human tumor 186277-243-T-J2-PDC patient-derived colon adenocarcinoma cell line growth inhibition [KRAS2]
Details: for IC50: curve of first compound; for viability, T/C: stronger effect = lower value
From the text: Multicellular complex tumor spheroid response to RAS pathway inhibitors in combination with a targeted agents in patient-derived cell lines with oncogenic KRAS variants from multiple cancer types
A high-throughput screen of multi-cell type tumor spheroids was designed to identify active combinations of targeted small molecules and KRAS pathway inhibitors. Complex spheroids include a stromal component modeled by human endothelial cells (HUVEC) and fibroblasts modeled by human mesenchymal stem cells (MSCs). The concentration ranges selected for each drug and investigational agent were based upon clinically achievable concentrations if the clinical Cmax of the agent was known.
Compounds. The drugs and investigational agents: BI-3406 (NSC825286), BAY-293 (NSC824723), batoprotafib (TNO155; NSC825523), sotorasib (AMG 510; NSC818433), MRTX1257 (NSC819558), elimusertib (BAY 1895344; NSC800525), molibresib (GSK525762; NSC774829), temuterkib (LY3214996; NSC803410), venetoclax (NSC766270), alisertib (NSC759677), olaparib (NSC753686), talazoparib (NSC767125), erdafitinib (NSC781556), ipatasertib (NSC767898), cabozantinib (NSC761068), nintedanib (NSC756659), abemaciclib (NSC768073), docetaxel (NSC628503), trametinib (NSC758246), and sapanisertib (NSC764658) were obtained from the National Cancer Institute (NCI) Developmental Therapeutics Program Chemical Repository. The FDA-approved anticancer drug set is available from the Developmental Therapeutics Program. […] The stock solutions were prepared in dimethyl sulfoxide (DMSO, Sigma-Aldrich, St. Louis, MO, cat. D2650) at 800-fold the tested concentration and stored at -70 degrees C prior to their use. All drugs and investigational agents were tested over a range starting from a high concentration at or near the clinical Cmax and decreasing in half-log increments. If the clinical Cmax for an agent had not been determined, the highest concentration tested was 10 microM.
Cell Culture. All cells were maintained in an incubator at 37 degrees C and 5% CO2 with 95% humidity. The PDC lines were cultured according to standard operating procedures established by the NCI PDMR (https://pdmr.cancer.gov/sops/default.htm). Briefly, all PDCs were thawed and cultured in Matrigel-coated flasks prepared with a working solution of 1X Ham's F-12 nutrient mix, without supplementation (Invitrogen, Waltham, MA, cat. 11765054), 100 U/mL penicillin-streptomycin (Invitrogen, cat. 15140122), and 2.5% Matrigel (Corning Inc., Corning, NY, cat. 354248) for the first three passages. All PDCs were cultured in complete DMEM/F-12 media containing advanced DMEM/F-12 (Invitrogen, cat. 12634028), 4.9% defined fetal bovine serum, heat inactivated (HyClone Laboratories Inc., Logan, UT, cat. SH30070.03HI), 389 ng/mL hydrocortisone (Sigma-Aldrich, cat. H4001), 9.7 ng/mL human EGF recombinant protein (Invitrogen, cat. PHG0313), 23.4 microg/mL adenine (Sigma-Aldrich, cat. A2786), 97.3 U/mL penicillin-streptomycin (Invitrogen, cat. 15140122), 1.9 mM L-glutamine (Invitrogen, cat. 25030081), and 9.7 microM Y-27632 dihydrochloride (Tocris Bioscience, Bristol, United Kingdom, cat. 1254). The PDCs were cultured in complete DMEM/F12 media without 9.7 microM Y-27632 dihydrochloride for at least two passages prior to the screen. The established cell line HOP-62 was cultured in RPMI 1640 medium, HEPES (Invitrogen, cat. 22400105) with 10% defined fetal bovine serum (HyClone Laboratories Inc., cat. SH30070.03) and 2 mM L-glutamine (Invitrogen, cat. 25030081). The pooled donor HUVEC were cultured in endothelial cell growth medium 2 (PromoCell, Heidelberg, Germany, cat. C-22011) and the hMSC were cultured in mesenchymal stem cell growth medium 2 (PromoCell, cat. C-28009). For all experiments, HUVEC and hMSC were used at passages </=5, while the malignant cell lines were used at passages </=15. […]

[1] = second compound 0.1 µM, first compound 0.0316 µM
[2] = second compound 0.1 µM, first compound 0.316 µM
[3] = second compound 0.1 µM, first compound 1 µM
[4] = second compound 0.1 µM, first compound 3.16 µM
[5] = second compound 0.1 µM, first compound 10 µM
[6] = second compound 0.316 µM, first compound 0.0316 µM
[7] = second compound 0.316 µM, first compound 0.1 µM
[8] = second compound 0.316 µM, first compound 0.316 µM
[9] = second compound 0.316 µM, first compound 1 µM
[10] = second compound 0.316 µM, first compound 3.16 µM
[11] = second compound 0.316 µM, first compound 10 µM
[12] = second compound 1 µM, first compound 0.0316 µM
[13] = second compound 1 µM, first compound 0.1 µM
[14] = second compound 1 µM, first compound 0.316 µM
[15] = second compound 1 µM, first compound 1 µM
[16] = second compound 1 µM, first compound 3.16 µM
[17] = second compound 1 µM, first compound 10 µM
[18] = second compound 3.16 µM, first compound 0.0316 µM
[19] = second compound 3.16 µM, first compound 0.1 µM
[20] = second compound 3.16 µM, first compound 0.316 µM
[21] = second compound 3.16 µM, first compound 1 µM
[22] = second compound 3.16 µM, first compound 3.16 µM
[23] = second compound 3.16 µM, first compound 10 µM
[24] = second compound 10 µM, first compound 0.0316 µM
[25] = second compound 10 µM, first compound 0.1 µM
[26] = second compound 10 µM, first compound 0.316 µM
[27] = second compound 10 µM, first compound 1 µM
[28] = second compound 10 µM, first compound 3.16 µM
[29] = second compound 10 µM, first compound 10 µM
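For viability, T/C in this document: viability read after seven days of compound exposure; 100% = DMSO vehicle-treated spheroids so lower means less viable.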

## COc1cc(Nc2ncc3c(n2)-c2ccc(Cl)cc2C(c2c(F)cccc2OC)=NC3)ccc1C(=O)O + C=CC(=O)N1CCN(c2nc(=O)n(-c3c(C)ccnc3C(C)C)c3nc(-c4c(O)cccc4F)c(F)cc23)C(C)C1
Second compound 0.1 µM
  IC50: < 31.6 nM
Second compound 0.316 µM
  IC50: < 31.6 nM
Second compound 1 µM
  IC50: < 31.6 nM
Second compound 3.16 µM
  IC50: < 31.6 nM
Second compound 10 µM
  IC50: < 31.6 nM
[1]
  viability, T/C: 25.1%
[2]
  viability, T/C: 22.8%
[3]
  viability, T/C: 34%
[4]
  viability, T/C: 50.2%
[5]
  viability, T/C: 50.6%
[6]
  viability, T/C: 28.5%
[7]
  viability, T/C: 29.5%
[8]
  viability, T/C: 32.6%
[9]
  viability, T/C: 38.1%
[10]
  viability, T/C: 46.8%
[11]
  viability, T/C: 49.2%
[12]
  viability, T/C: 23.2%
[13]
  viability, T/C: 23.8%
[14]
  viability, T/C: 32.7%
[15]
  viability, T/C: 38.5%
[16]
  viability, T/C: 50.1%
[17]
  viability, T/C: 46.7%
[18]
  viability, T/C: 29.2%
[19]
  viability, T/C: 30.8%
[20]
  viability, T/C: 32.8%
[21]
  viability, T/C: 36.9%
[22]
  viability, T/C: 43%
[23]
  viability, T/C: 35.7%
[24]
  viability, T/C: 20.7%
[25]
  viability, T/C: 29.2%
[26]
  viability, T/C: 21.1%
[27]
  viability, T/C: 27.9%
[28]
  viability, T/C: 27.7%
[29]
  viability, T/C: 20.7%

## COc1cc2nccc(Oc3ccc(NC(=O)C4(C(=O)Nc5ccc(F)cc5)CC4)cc3)c2cc1OC + C=CC(=O)N1CCN(c2nc(=O)n(-c3c(C)ccnc3C(C)C)c3nc(-c4c(O)cccc4F)c(F)cc23)C(C)C1
Second compound 0.1 µM
  IC50: 1880 nM
Second compound 0.316 µM
  IC50: 1770 nM
Second compound 1 µM
  IC50: 1320 nM
Second compound 3.16 µM
  IC50: 823 nM
Second compound 10 µM
  IC50: 101 nM
[1]
  viability, T/C: 95.2%
Second compound 0.1 µM, first compound 0.1 µM
  viability, T/C: 94.8%
[2]
  viability, T/C: 100%
[3]
  viability, T/C: 93.7%
[4]
  viability, T/C: 13.1%
[5]
  viability, T/C: 15.4%
[6]
  viability, T/C: 93%
[7]
  viability, T/C: 85.5%
[8]
  viability, T/C: 98.2%
[9]
  viability, T/C: 86.1%
[10]
  viability, T/C: 12.3%
[11]
  viability, T/C: 14%
[12]
  viability, T/C: 98%
[13]
  viability, T/C: 92.4%
[14]
  viability, T/C: 101%
[15]
  viability, T/C: 61.8%
[16]
  viability, T/C: 12.4%
[17]
  viability, T/C: 13.7%
[18]
  viability, T/C: 94.5%
[19]
  viability, T/C: 103%
[20]
  viability, T/C: 91.2%
[21]
  viability, T/C: 41.8%
[22]
  viability, T/C: 9.95%
[23]
  viability, T/C: 11.2%
[24]
  viability, T/C: 49.9%
[25]
  viability, T/C: 52.7%
[26]
  viability, T/C: 32.3%
[27]
  viability, T/C: 9.14%
[28]
  viability, T/C: 2.99%
[29]
  viability, T/C: 3.53%

Source: PubChem BioAssay AID1963875 (Molecular Pharmacology Branch, DTP, NCI, 2024)
